{"source": "patent US9856218B2", "about": "“Inhibitors of PRMT5 and methods of their use” (Ohio State Innovation Foundation, priority 2013, dated 2018)", "key": {"[1]": {"test_system": "Mantle cell lymphoma cell line Jeko", "experiment": "MTS anti-proliferation assay", "format": "cell-based", "description": "MTS proliferation assays were performed according the CellTiter 96™ Aqueous Cell Proliferation Assay Technical Bulletin (Promega, Madison, Wis.). 5×10^5 cells were plated in each well of a 96-well plate at 37° C. and assayed for proliferation at 24, 48, and 72 hr. Proliferation signal at 50% of control was used as IC50 for growth.\n(§1) Following the synthesis of 14 compounds, the anti-proliferation and pro-apoptotic activities of those compounds was evaluated in Mantle cell lymphoma cell line Jeko. Replicate cultures of Jeko were incubated in DMSO and the compounds for 24, 48 and 72 hours. FITC-Annexin V-PI stained flow cytometry was used to detect the apoptotic population of cells (Table 4)."}, "[2]": {"test_system": "Mantle cell lymphoma cell line Jeko", "experiment": "Induction of apoptosis, FITC-Annexin V-PI flow cytometry", "format": "cell-based", "description": "Analysis by flow cytometry. Cell viability was also measured by flow cytometry at 24 and 48 hr using annexin-V-FITC and propidium iodide (PI) according to the manufacturer's instructions (BD Biosciences).\nas §1"}, "[3]": {"biological_target": "T1, recombinant human PRMT5/MEP50 enzyme (Homo sapiens, UniProt O14744)", "T1 construct": "purchased BPS Bioscience", "T1 sequence (O14744 2-637 limits assumed)": "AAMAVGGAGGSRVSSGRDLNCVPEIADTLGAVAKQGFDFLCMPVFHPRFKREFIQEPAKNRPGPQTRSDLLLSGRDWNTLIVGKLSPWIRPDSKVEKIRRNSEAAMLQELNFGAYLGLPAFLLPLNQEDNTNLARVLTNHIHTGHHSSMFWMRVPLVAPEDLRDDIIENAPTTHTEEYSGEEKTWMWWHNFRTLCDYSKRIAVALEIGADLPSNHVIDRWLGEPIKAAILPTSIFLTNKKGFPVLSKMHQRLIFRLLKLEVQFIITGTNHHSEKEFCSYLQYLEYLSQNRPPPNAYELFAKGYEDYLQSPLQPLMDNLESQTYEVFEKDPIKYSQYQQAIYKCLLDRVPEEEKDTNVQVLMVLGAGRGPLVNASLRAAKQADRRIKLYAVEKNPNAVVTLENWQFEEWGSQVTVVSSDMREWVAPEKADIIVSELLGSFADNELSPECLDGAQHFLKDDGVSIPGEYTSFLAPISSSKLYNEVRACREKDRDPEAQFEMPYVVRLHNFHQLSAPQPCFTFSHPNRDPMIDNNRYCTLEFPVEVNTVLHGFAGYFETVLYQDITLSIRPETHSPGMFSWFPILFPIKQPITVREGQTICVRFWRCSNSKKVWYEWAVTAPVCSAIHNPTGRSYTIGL", "T1 sequence (Q9BQA1 2-342 partner limits assumed)": "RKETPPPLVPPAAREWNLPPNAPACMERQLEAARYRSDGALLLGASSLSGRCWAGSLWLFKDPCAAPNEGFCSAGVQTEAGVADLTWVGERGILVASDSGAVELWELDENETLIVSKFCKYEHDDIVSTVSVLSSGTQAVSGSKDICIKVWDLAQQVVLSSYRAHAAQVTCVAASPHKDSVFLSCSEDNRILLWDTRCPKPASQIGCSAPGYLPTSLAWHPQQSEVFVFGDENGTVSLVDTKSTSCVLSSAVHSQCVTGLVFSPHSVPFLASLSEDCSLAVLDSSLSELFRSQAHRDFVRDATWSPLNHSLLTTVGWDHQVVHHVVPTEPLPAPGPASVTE", "experiment": "Epigenase PRMT methyltransferase (type II-specific) activity/inhibition assay kit", "format": "biochemical", "conditions": "25 ng recombinant human PRMT5/MEP50 per reaction; read-out: Inhibition of PRMT5 mediated H4R3 methylation (IC50)", "description": "The inhibition of PRMT5 mediated H4R3 methylation result was obtained with Epigenase™ PRMT methyltransferase (type II-specific) activity/inhibition assay kit. 25 ng recombinant human PRMT5/MEP50 enzyme (purchased from BPS Bioscience) was used in each reaction."}, "HNSCC tumor cells": {"test_system": "HNSCC tumor cells", "experiment": "Proliferation of HNSCC tumor cells", "format": "cell-based", "conditions": "FIG. 58"}, "[4]": {"experiment": "In vivo pharmacokinetics, plasma concentration", "set-up": "species or system Mouse", "conditions": "mouse, in vivo", "excerpt": "Pharmacokinetic data of compounds HLCL-7, HLCL-61, and HLCL-66 taken from an in vivo study is illustrated in Table 10. […]"}, "[5]": {"experiment": "24 hr Quick MTD test, one mouse for each dose", "format": "in vivo", "description": "(§2) Controlled shRNA depletion was evaluated in a murine lymphoma model (Eμ-BRD2 (Chung, J., et al. (2013) J. Biological Chemistry 288, 35534-35547)) and human xenograft model of glioblastoma (Yan, F., et al (2014) Cancer Research In Press). Referring to FIG. 62A, controlled expression of a PRMT5 shRNA (solid line) but not control shRNA (dashed line) leads to 100% survival of mice engrafted primary DLBCL tumor cells. […] The maximum tolerated dose (MTD, single dose) was identified at 50 mg/kg (see Table 11 below). A sub-toxic dose (25 mg/kg) was used to treat FcMCL mice. Control mice developed peripheral blood and lymph node tumor burden starting day 20 post-engraftment."}, "[6]": {"experiment": "MTD study, four mice each dose", "format": "in vivo", "conditions": "mouse, in vivo, ip", "description": "as §2"}, "OG2 cells": {"test_system": "OG2 cells", "experiment": "Viability/apoptosis assay alone and in combination with temozolomide", "format": "cell-based", "conditions": "in combination with TMZ, FIG. 13", "excerpt": "OG2 cells are tumor cells derived from glioblastoma primary tumors."}, "multiple cell lines": {"test_system": "multiple cell lines", "experiment": "Proliferation of multiple cell lines (FIG. 59)", "format": "cell-based", "conditions": "FIG. 59A-E", "description": "Proliferation of multiple cell lines was evaluated for CMPD 5, CMPD 7, HLCL61, HLCL-65, and HLCL-66 (FIG. 59A-E)."}, "CAL-27 cell line": {"test_system": "CAL-27 cell line", "experiment": "Migration scratch assay", "format": "cell-based", "conditions": "CAL-27, 16 h and 24 h", "description": "Referring to FIG. 60, PRMT5 and squamous cell carcinoma migration in response to HLCL-66 is illustrated. Migration was performed as previously described (Nowicki, M. O., et al. (2008) Neuro. Oncol. 10, 690-699). Briefly, a migration scratch assay was performed with CAL-27 cell line treated with HLCL-66 for 0, 16, and 24 hours."}}, "data": [{"molecule": "CCn1c2ccccc2c2cc(NC(=N)Nc3ccc(S(C)(=O)=O)cc3)ccc21", "note": "[HLCL-7]", "values": [{"measurement": "IC50", "setting": "[1]; 24 h incubation", "value": 32, "unit": "µM"}, {"measurement": "IC50", "setting": "[1]; 48 h incubation", "value": 26, "unit": "µM"}, {"measurement": "IC50", "setting": "[1]; 72 h incubation", "value": 13, "unit": "µM"}, {"measurement": "EC50", "setting": "[2]; 24 h", "value": 32, "unit": "µM"}, {"measurement": "EC50", "setting": "[2]; 48 h", "value": 26, "unit": "µM"}, {"measurement": "IC50", "setting": "[3]", "value": 7, "unit": "µM"}, {"measurement": "proliferation of HNSCC tumor cells", "setting": "HNSCC tumor cells", "value": "inhibit proliferation in a dose-dependent manner"}, {"measurement": "concentration at 0.08 h", "setting": "[4]; ip, 25 mg/kg", "value": 7.57, "unit": "µM"}, {"measurement": "concentration at 0.17 h", "setting": "[4]; ip, 25 mg/kg", "value": 886, "unit": "nM"}, {"measurement": "concentration at 0.33 h", "setting": "[4]; ip, 25 mg/kg", "value": 7.54, "unit": "µM"}, {"measurement": "concentration at 0.5 h", "setting": "[4]; ip, 25 mg/kg", "value": 7.48, "unit": "µM"}, {"measurement": "concentration at 1 h", "setting": "[4]; ip, 25 mg/kg", "value": 4910, "unit": "nM"}, {"measurement": "concentration at 2 h", "setting": "[4]; ip, 25 mg/kg", "value": 7.68, "unit": "µM"}, {"measurement": "concentration at 4 h", "setting": "[4]; ip, 25 mg/kg", "value": 4130, "unit": "nM"}, {"measurement": "concentration at 6 h", "setting": "[4]; ip, 25 mg/kg", "value": 2540, "unit": "nM"}, {"measurement": "concentration at 8 h", "setting": "[4]; ip, 25 mg/kg", "value": 2790, "unit": "nM"}, {"measurement": "concentration at 24 h", "setting": "[4]; ip, 25 mg/kg", "value": 1.35, "unit": "nM"}, {"measurement": "concentration at 0.08 h", "setting": "[4]; iv, 5 mg/kg", "value": 3.24, "unit": "µM"}, {"measurement": "concentration at 0.17 h", "setting": "[4]; iv, 5 mg/kg", "value": 3070, "unit": "nM"}, {"measurement": "concentration at 0.33 h", "setting": "[4]; iv, 5 mg/kg", "value": 1.5, "unit": "µM"}, {"measurement": "concentration at 0.5 h", "setting": "[4]; iv, 5 mg/kg", "value": 0.911, "unit": "µM"}, {"measurement": "concentration at 1 h", "setting": "[4]; iv, 5 mg/kg", "value": 601, "unit": "nM"}, {"measurement": "concentration at 2 h", "setting": "[4]; iv, 5 mg/kg", "value": 0.507, "unit": "µM"}, {"measurement": "concentration at 4 h", "setting": "[4]; iv, 5 mg/kg", "value": 200, "unit": "nM"}, {"measurement": "concentration at 6 h", "setting": "[4]; iv, 5 mg/kg", "value": 76.2, "unit": "nM"}, {"measurement": "concentration at 8 h", "setting": "[4]; iv, 5 mg/kg", "value": 77.1, "unit": "nM"}, {"measurement": "concentration at 24 h", "setting": "[4]; iv, 5 mg/kg", "value": 1.38, "unit": "nM"}, {"measurement": "survival after dosing", "setting": "[5]; IV-2.5 mg/kg, one mouse", "value": "Alive 24 hr after"}, {"measurement": "survival after dosing", "setting": "[5]; mouse, in vivo, ip, 50 mg/kg, 24 h", "value": "Alive 24 hr after"}, {"measurement": "survival after dosing", "setting": "[5]; mouse, in vivo, ip, 100 mg/kg, 24 h", "value": "Dead within 1 hr after"}, {"measurement": "survival after dosing", "setting": "[5]; mouse, in vivo, ip, 200 mg/kg, 24 h", "value": "Dead within 1 hr after"}, {"measurement": "survival after dosing", "setting": "[5]; mouse, in vivo, iv, 5 mg/kg, 24 h", "value": "Alive 24 hr after"}, {"measurement": "clinical signs after dosing (slow moving)", "setting": "[5]; mouse, in vivo, iv, 10 mg/kg", "value": "dosing but slow"}, {"measurement": "survival after dosing", "setting": "[5]; mouse, in vivo, iv, 10 mg/kg, 24 h", "value": "Alive 24 hr after"}, {"measurement": "survival after dosing", "setting": "[5]; mouse, in vivo, iv, 20 mg/kg", "value": "Dead instantly after"}, {"measurement": "survival 24 hr after dosing", "setting": "[6]; 5 mg/kg, 24 h", "value": "Alive 24 hr after"}, {"measurement": "condition within 1 hr after dosing (alive but slow moving)", "setting": "[6]; 50 mg/kg", "value": "Alive within 1 hr after"}, {"measurement": "mice lethargic and slow moving 24 hr after dosing", "setting": "[6]; 50 mg/kg, 24 h", "value": "after dosing, 1 out 4"}, {"measurement": "survival 24 hr after dosing", "setting": "[6]; 50 mg/kg, 24 h", "value": "moving. Alive 24 hr"}]}, {"molecule": "CCn1c2ccccc2c2cc(/C=C/C(=O)c3ccccc3OC)ccc21", "note": "[HLCL-66]", "values": [{"measurement": "IC50", "setting": "[1]; 24 h incubation", "value": 1.9, "unit": "µM"}, {"measurement": "IC50", "setting": "[1]; 48 h incubation", "value": 0.4, "unit": "µM"}, {"measurement": "IC50", "setting": "[1]; 72 h incubation", "value": 0.2, "unit": "µM"}, {"measurement": "EC50", "setting": "[2]; 24 h", "value": 1.4, "unit": "µM"}, {"measurement": "EC50", "setting": "[2]; 48 h", "value": 0.5, "unit": "µM"}, {"measurement": "IC50", "setting": "[3]", "value": 26, "unit": "µM"}, {"measurement": "induction of apoptosis in combination", "setting": "OG2 cells", "value": "synergistic"}, {"measurement": "potency, proliferation of multiple cell lines", "setting": "multiple cell lines", "value": "low micromolar range"}, {"measurement": "gap closure (migration)", "setting": "CAL-27 cell line", "value": "affected in a dose-response fashion"}]}]}
